Measured values taken from PMC7736581, “Activation of the IRE1 RNase through remodeling of the kinase front pocket by ATP-competitive ligands” (Nature Communications, 2020).

Columns and labels:
Test in all cases: biochemical
Design in all cases: Invitrogen kinase panel: Z'Lyte activity (ATP at Km) or LanthaScreen competitive ATP-site binding, percent inhibition
IGF1R = IGF1R (Homo sapiens, UniProt P08069)
LRRK2 = LRRK2 (Homo sapiens, UniProt Q5S007)
Rsk1 = target: T1, Rsk1 (Homo sapiens, UniProt Q15418)
T1 construct: gene RPS6KA1
T1 sequence (Q15418 whole entry): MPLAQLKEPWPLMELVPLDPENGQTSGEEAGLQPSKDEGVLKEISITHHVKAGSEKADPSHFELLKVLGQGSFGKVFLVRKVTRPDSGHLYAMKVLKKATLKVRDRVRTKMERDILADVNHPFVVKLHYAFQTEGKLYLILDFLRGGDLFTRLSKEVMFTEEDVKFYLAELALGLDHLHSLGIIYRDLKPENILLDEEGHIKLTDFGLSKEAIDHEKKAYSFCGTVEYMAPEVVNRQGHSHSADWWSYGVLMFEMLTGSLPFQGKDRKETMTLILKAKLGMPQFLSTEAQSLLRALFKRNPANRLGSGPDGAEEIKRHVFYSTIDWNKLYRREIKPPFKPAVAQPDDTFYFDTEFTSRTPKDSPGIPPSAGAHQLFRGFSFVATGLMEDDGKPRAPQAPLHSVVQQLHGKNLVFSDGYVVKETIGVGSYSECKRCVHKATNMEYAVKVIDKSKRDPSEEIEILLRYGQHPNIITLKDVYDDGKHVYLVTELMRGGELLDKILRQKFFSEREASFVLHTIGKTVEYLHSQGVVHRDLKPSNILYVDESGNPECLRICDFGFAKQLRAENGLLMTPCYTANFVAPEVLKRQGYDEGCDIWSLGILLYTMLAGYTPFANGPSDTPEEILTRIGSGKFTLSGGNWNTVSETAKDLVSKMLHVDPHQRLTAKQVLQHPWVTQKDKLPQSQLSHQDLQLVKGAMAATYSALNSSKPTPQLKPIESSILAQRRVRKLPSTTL

PLK2 = PLK2 (Homo sapiens, UniProt Q9NYY3)
PKC_theta = target: T2, PKC_theta (Homo sapiens, UniProt Q04759)
T2 construct: gene PRKCQ

CK1_delta = target: T3, CK1_delta (Homo sapiens, UniProt P48730)
T3 construct: gene CSNK1D
T3 sequence (P48730 whole entry): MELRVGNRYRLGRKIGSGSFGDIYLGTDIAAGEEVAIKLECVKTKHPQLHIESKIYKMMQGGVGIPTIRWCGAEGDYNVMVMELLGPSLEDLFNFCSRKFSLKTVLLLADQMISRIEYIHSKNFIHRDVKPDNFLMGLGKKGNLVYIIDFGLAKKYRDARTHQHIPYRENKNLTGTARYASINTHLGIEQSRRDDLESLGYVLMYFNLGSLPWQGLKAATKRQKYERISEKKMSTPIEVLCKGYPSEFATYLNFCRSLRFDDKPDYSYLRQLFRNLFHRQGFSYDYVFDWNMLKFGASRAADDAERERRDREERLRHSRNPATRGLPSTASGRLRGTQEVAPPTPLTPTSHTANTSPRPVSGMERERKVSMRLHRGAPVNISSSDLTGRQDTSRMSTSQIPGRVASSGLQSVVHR

YSK1 = target: T4, YSK1 (Homo sapiens, UniProt O00506)
T4 construct: gene STK25

AKT1 = AKT1 (Homo sapiens, UniProt P31749)
Sequence of AKT1 (P31749 whole entry): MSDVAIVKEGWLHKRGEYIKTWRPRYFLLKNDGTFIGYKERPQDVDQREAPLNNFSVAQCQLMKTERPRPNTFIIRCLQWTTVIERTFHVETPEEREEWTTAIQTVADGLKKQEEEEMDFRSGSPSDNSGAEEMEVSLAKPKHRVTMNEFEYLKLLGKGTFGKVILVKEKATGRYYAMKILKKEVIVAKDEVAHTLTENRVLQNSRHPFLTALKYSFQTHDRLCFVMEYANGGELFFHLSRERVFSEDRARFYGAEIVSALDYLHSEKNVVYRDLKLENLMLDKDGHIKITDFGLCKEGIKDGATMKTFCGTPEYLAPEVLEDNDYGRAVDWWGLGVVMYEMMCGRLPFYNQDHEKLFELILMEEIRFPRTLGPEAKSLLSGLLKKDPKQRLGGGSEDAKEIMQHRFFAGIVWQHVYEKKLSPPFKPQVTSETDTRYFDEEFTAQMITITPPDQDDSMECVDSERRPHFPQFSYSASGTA

PAK3 = PAK3 (Homo sapiens, UniProt O75914)
MKNK2 = MKNK2 (Homo sapiens, UniProt Q9HBH9)
SRPK1 = SRPK1 (Homo sapiens, UniProt Q96SB4)
Kit = Kit (Homo sapiens, UniProt P10721)
CaMKI = target: T5, CaMKI (Homo sapiens, UniProt Q14012)
T5 construct: gene CAMK1

PI3K-A = target: T6, PI3K-A (Homo sapiens, UniProt P42336)
T6 construct: gene PIK3CA

PDGFR_alpha = target: T7, PDGFR_alpha (Homo sapiens, UniProt P16234)
T7 construct: gene PDGFRA

KHS1 = target: T8, KHS1 (Homo sapiens, UniProt Q9Y4K4)
T8 construct: gene MAP4K5
T8 sequence (Q9Y4K4 whole entry): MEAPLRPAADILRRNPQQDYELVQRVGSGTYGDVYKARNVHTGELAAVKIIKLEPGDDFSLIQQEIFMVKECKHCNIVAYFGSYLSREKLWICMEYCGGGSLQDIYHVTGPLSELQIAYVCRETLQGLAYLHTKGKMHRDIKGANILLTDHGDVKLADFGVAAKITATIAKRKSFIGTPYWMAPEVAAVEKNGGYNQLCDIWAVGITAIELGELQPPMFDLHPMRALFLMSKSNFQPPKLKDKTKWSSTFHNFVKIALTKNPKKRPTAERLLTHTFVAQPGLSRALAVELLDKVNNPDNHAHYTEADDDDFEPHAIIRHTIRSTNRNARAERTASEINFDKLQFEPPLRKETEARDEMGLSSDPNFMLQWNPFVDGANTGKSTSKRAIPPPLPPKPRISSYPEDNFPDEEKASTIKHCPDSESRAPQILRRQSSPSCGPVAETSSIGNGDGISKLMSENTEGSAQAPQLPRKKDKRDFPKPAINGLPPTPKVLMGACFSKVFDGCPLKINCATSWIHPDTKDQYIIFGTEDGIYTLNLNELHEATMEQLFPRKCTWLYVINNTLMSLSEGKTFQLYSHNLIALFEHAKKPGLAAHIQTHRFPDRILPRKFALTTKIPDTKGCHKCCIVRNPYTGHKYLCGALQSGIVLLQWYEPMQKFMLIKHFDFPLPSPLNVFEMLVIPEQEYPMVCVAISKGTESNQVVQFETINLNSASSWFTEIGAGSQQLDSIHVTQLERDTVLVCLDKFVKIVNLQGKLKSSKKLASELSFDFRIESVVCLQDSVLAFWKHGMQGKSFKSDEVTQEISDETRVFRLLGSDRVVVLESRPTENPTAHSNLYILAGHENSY

AKT2 = AKT2 (Homo sapiens, UniProt P31751)
MST3 = target: T9, MST3 (Homo sapiens, UniProt Q9Y6E0)
T9 construct: gene STK24

DNA-PK = target: T10, DNA-PK (Homo sapiens, UniProt P78527)
T10 construct: gene PRKDC

JNK3 = target: T11, JNK3 (Homo sapiens, UniProt P53779)
T11 construct: gene MAPK10

Ros = target: T12, Ros (Homo sapiens, UniProt P08922)
T12 construct: gene ROS1
T12 sequence (P08922 whole entry): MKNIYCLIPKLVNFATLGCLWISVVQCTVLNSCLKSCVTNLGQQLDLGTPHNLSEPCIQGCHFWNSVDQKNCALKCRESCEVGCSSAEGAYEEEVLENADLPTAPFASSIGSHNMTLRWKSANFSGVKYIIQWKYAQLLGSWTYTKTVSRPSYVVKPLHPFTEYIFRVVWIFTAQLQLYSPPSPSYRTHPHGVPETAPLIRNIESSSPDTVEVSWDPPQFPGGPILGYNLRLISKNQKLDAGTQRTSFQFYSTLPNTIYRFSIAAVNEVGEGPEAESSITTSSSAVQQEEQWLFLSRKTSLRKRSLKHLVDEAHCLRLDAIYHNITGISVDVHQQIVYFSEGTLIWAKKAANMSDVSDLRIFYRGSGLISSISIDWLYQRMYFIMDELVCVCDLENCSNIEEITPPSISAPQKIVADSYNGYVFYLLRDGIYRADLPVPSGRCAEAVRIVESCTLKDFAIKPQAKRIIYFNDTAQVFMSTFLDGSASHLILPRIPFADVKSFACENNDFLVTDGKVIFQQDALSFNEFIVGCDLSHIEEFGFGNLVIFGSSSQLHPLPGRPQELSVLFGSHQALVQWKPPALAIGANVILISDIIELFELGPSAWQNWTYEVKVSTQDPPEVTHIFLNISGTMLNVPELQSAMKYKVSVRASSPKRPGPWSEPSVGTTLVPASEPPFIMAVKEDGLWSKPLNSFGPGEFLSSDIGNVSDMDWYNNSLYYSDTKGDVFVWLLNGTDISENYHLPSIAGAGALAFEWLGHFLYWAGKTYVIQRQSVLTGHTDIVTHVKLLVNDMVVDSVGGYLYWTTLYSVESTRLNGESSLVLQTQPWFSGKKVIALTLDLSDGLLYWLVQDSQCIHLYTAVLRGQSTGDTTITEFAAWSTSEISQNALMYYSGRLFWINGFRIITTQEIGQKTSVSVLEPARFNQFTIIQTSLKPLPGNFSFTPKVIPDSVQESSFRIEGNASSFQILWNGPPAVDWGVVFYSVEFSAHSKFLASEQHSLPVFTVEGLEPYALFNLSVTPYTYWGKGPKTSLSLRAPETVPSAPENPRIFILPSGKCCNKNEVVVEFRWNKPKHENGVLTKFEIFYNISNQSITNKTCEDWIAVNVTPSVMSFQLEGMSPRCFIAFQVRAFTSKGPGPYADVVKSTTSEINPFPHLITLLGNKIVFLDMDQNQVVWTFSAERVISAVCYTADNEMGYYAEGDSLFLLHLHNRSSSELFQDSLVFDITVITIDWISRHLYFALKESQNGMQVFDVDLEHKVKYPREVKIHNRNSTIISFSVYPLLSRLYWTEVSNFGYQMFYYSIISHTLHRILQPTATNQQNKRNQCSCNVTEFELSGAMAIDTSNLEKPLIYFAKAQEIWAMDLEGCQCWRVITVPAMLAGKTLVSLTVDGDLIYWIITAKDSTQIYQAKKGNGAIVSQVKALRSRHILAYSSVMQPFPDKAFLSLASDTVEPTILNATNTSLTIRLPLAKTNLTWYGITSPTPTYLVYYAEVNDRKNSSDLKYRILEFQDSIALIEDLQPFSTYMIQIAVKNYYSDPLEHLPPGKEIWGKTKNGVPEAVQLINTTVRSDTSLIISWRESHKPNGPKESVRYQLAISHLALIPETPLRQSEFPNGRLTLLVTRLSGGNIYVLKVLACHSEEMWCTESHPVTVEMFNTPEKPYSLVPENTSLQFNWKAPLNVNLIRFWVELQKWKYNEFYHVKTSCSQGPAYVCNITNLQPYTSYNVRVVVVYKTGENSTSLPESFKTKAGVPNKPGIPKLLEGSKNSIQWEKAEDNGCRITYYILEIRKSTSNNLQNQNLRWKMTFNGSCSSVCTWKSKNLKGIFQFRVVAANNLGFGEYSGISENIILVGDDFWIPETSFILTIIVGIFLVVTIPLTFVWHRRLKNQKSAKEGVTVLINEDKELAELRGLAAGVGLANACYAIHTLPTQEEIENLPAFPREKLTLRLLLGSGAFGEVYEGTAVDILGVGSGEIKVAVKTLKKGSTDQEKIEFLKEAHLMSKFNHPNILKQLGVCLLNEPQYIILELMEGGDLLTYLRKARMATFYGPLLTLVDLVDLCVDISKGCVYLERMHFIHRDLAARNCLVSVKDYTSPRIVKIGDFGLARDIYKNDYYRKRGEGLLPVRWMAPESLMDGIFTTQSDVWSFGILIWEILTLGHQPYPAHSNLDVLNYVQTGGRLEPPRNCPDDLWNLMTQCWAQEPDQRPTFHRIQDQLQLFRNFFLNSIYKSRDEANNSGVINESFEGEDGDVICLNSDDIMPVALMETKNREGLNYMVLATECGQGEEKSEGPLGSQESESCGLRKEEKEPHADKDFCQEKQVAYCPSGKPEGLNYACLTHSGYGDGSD

Frk = Frk (Homo sapiens, UniProt P42685)
ZAK = target: T13, ZAK (Homo sapiens, UniProt Q9NYL2)
T13 construct: gene MAP3K20

EphB1 = EphB1 (Homo sapiens, UniProt P54762)
GRK5 = GRK5 (Homo sapiens, UniProt P34947)

Row | Structure (SMILES) | inhibition at 1 µM (IGF1R) [%] | inhibition at 1 µM (LRRK2) [%] | inhibition at 1 µM (Rsk1) [%] | inhibition at 1 µM (PLK2) [%] | inhibition at 1 µM (PKC_theta) [%] | inhibition at 1 µM (CK1_delta) [%] | inhibition at 1 µM (YSK1) [%] | inhibition at 1 µM (AKT1) [%] | inhibition at 1 µM (PAK3) [%] | inhibition at 1 µM (MKNK2) [%] | inhibition at 1 µM (SRPK1) [%] | inhibition at 1 µM (Kit) [%] | inhibition at 1 µM (CaMKI) [%] | inhibition at 1 µM (PI3K-A) [%] | inhibition at 1 µM (PDGFR_alpha) [%] | inhibition at 1 µM (KHS1) [%] | inhibition at 1 µM (AKT2) [%] | inhibition at 1 µM (MST3) [%] | inhibition at 1 µM (DNA-PK) [%] | inhibition at 1 µM (JNK3) [%] | further results
1 | CCOC(=O)Nc1cccc2c(Oc3ncccc3-c3ccnc(N[C@H]4CCCNC4)n3)c(C)ccc12 [G-1749] | 6.5 | -3.5 | 3 | 3 | 1.5 | 3 | 2.5 | -16.5 | 6.5 | 3.5 | 6.5 | 0 | -10 | 10 | -3.5 | 29.5 | 6 | -2 | 6.5 | 52.5 | inhibition at 1 µM (Ros): 7%; inhibition at 1 µM (Frk): 10.5%; inhibition at 1 µM (ZAK): -0.5%; inhibition at 1 µM (EphB1): -17%; inhibition at 1 µM (GRK5): -3%
2 | CC#CC(=O)Nc1cccc2c(Oc3ncccc3-c3ccnc(N[C@H]4CCCNC4)n3)c(C)ccc12 [G-7658] | 5.5 | 8.5 | 1.5 | 3 | 0 | 5.5 | -3 | -13.5 | 5 | -2 | 5 | -0.5 | -2.5 | -18.5 | -0.5 | 18 | 4 | -8.5 | 11 | 51.5 | inhibition at 1 µM (Ros): 8%; inhibition at 1 µM (Frk): 1.5%; inhibition at 1 µM (ZAK): 0.5%; inhibition at 1 µM (EphB1): -11.5%; inhibition at 1 µM (GRK5): -3%
